Laboratory results taken from publication PMC12176268, “Structural Features and Photophysical and Antiproliferative Properties of Me2N‑pbt-Cycloplatinated Complexes with Picolinate Ligands” (Inorganic Chemistry, 2025).
Like-named read-outs stand apart in the source and are kept apart here.

How the values were obtained:
[1] = Stability in serum-free DMEM containing 5% DMSO by UV–vis; assay type: physicochemical; conditions: DMEM with 5% DMSO, 25 μM, 37 °C
From the text: The stability of complexes 1–4 was then investigated in more biologically relevant media by UV–visible spectroscopy. First, the stability of the complexes was studied in phosphate-buffered saline (PBS) containing 5% DMSO (Figure S30). […] Only a decrease in the intensity of all bands was observed, which could be attributed to partial aggregation and/or precipitation. […] The stability of complexes 1–4 was next studied in serum-free DMEM cell culture containing 5% DMSO (Figure S31). […] This final species seemed to have spectral features similar to those observed for complex 4 (Figure S31A). […] The similarity of the spectral features of the transformed species in all cases seemed to point to the formation of a common species upon incubation in DMEM, which we tentatively attribute to the decoordination of the picolinate ligands with a substituent-dependent kinetics; the COOH group favored the release of the picolinate ligand, while both NH2 and OH substituents seemed to slow down this process.
The UV–vis spectra of complexes 1–4 were recorded in PBS:DMSO (95/5) and serum-free DMEM:DMSO (95/5) at a concentration of 25 μM on a Cary 50 spectrophotometer (Varian).

MDA-MB-231 = test: MTT cell viability assay on MDA-MB-231 cells, dark and 450 nm irradiation; assay type: cell-based, human; conditions: for EC50: MTT
From the text: (§1) (C∧N) cyclometalated Pt(II) complexes have been previously reported to have strong antiproliferative activities when associated with phenanthroline-based, diphosphine, acyclic diamino carbenes, or picolinate ligands. In particular, (Me2N-pbt)-cyclometalated platinum complexes have been previously reported by some of us to have antiproliferative properties in the micromolar range on a panel of cancer cell lines, prompting us to investigate the anticancer properties of complexes 1–4 in dark conditions and, considering their high quantum yield (ϕΔ) of ^1O2 generation, under irradiation conditions. Due to the poor solubility of the complexes in an aqueous environment, complexes 1–4 were first dissolved in DMSO and diluted in the culture media to reach a final concentration of 1% DMSO when incubated with the cells. All complexes were screened against the so-called “triple-negative” breast cancer cell line MDA-MB-231, lung adenocarcinoma cell line A549, and the noncancerous breast cell line MCF-10A for 72 h in dark conditions and under 5 min irradiation at 450 nm (see Experimental Section for details). The irradiation time was kept short to prevent light-induced toxicity of the energetic wavelength observed at longer irradiation times (data not shown). The measurement of the effective concentration at 50% (EC50) was carried out using the classical MTT assay, and the data are provided in Table .
(§2) In dark conditions, we could notice a strong influence of substituents on the picolinate ligands. […] This can be correlated with its poor stability in the culture medium mentioned above, which might reduce its cellular uptake. […] However, in dark conditions, no particular selectivity for cancer cells could be observed with similar activity measured against the noncancerous cell line MCF-10A. For the “light” experiments, the cells were preincubated with the complexes for 4 h in the dark, irradiated at 450 nm for 5 min, and then put back in the dark until 72 h. The photoactivity index (PI) values, defined as the ratio between the EC50 in dark conditions and the EC50 after irradiation for each cell line, are shown in Figure .
(§3) The human lung adenocarcinoma cell line A549 and human breast cancer cell line MDA-MB-231 were cultivated in DMEM (Dulbecco’s modified Eagle’s medium) containing GlutaMax I supplemented with 10% FBS at 37 °C in a humidified atmosphere and 5% CO2. The noncancerous cell line MCF-10A was maintained in DMEM:F12 (1:1) cell culture media, 5% heat-inactivated horse serum, supplemented with HEPES (20 mM), L-glutamine (2 mM), epidermal growth factor (20 ng/mL), hydrocortisone (500 ng/mL), cholera toxin (100 ng/mL), and insulin (10 μg/mL). Cell viability was evaluated by using a colorimetric method based on the tetrazolium salt MTT [3-(4,5-dimethylthiazol-2-yl)-2,5-diphenyltetrazolium bromide], which is reduced by viable cells to yield purple formazan crystals. Cells were seeded in 96-well plates at a density of 40000 cells/mL (100 μL per well). Stock solutions were prepared in DMSO for complexes 1–4 and in water for cisplatin. […] For dark experiments, after overnight attachment, a dilution series of the compounds was added to the medium, and the cells were incubated for a further 72 h. For the irradiated experiments, after overnight attachment, a dilution series of the compounds was added to the medium, and the cells were preincubated for 4 h. The cells were then irradiated at 450 nm for 5 min with a Kessil Lamp (power: 3 mW/cm^2, 1.13 × 10^–8 Einstein/s at 20 cm distance between the light source and 96-well plate) and the incubation was continued until 72 h. After 72 h, the medium was removed and the cells were incubated with MTT solution in PBS (10 μL of 5 mg/mL) for 2–3 h. The formed purple formazan crystals were dissolved in 100 μL of DMSO by thorough shaking, and the absorbance at 580 nm was read using a microplate reader (FLUOstar OPTIMA, BMG Labtech). Each test was performed with at least 3 replicates and repeated at least 3 times. […]

A549 = test: MTT cell viability assay on A549 cells, dark and 450 nm irradiation; assay type: cell-based, human; conditions: for EC50: MTT
From the text: as §1, §2, §3

[Pt(Me2N-pbt)(3-OH-pic-κN,O)] [Complex 3]
stability in serum-free DMEM, UV–vis spectral changes, 24 h ([1]; 24 h): spectral features of both complexes changed | stability in serum-free DMEM, UV–vis spectral changes, first 4 h ([1]; first 4 h, dark or with 5 min irradiation at 450 nm): no spectral changes | EC50 (MDA-MB-231; 4 h preincubation, 5 min irradiation at 450 nm, then dark until 72 h, read-out: EC50 MDA-MB-231 light): 0.22 ± 0.03 µM | EC50 (MDA-MB-231; 72 h incubation at 37 °C, dark, read-out: EC50 MDA-MB-231 dark): 2.6 ± 0.8 µM | reduction of the antiproliferative activity relative to 1, MDA-MB-231 (MDA-MB-231; dark conditions): ~5 times | lower activity toward MDA-MB-231 cells compared to the noncancerous cells (MDA-MB-231; dark conditions, versus MCF-10A): 2 fold | activity on MDA-MB-231 compared to the noncancerous cell line (MDA-MB-231; upon irradiation (450 nm, 5 min), versus MCF-10A): twice as active | photoactivity index (PI), EC50 dark / EC50 after irradiation, A549 (A549; 5 min irradiation at 450 nm): 5.6 | EC50 (A549; 4 h preincubation, 5 min irradiation at 450 nm, then dark until 72 h, read-out: EC50 A549 light): 1.1 ± 0.08 µM | EC50 (A549; 72 h incubation at 37 °C, dark, read-out: EC50 A549 dark): 6.1 ± 0.2 µM | reduction of the antiproliferative activity relative to 1, A549 (A549; dark conditions): ~5 times
